According to patent US20170304388A1, “NEW INDICATION OF CARDIOVASCULAR DRUGS FOR PREPARATION OF CANCER INHIBITION PHARMACEUTICAL COMPOSITION” (LAUNX BIOMEDICAL CO., LTD., priority 2014, published 2017):

What was measured:
Assay type in all cases: cell-based
[1] = test system: MKN-45 (Gastric Adenocarcinoma); assay: Cell viability analysis (WST-1), MKN-45; conditions: Table 4, repeated experiments, drug 10 μM; for viability at 10 µM: Homo sapiens, MKN-45, 72 h, WST-1, read-out: survival rate (viability) of cancer cells, MKN-45
786-O = assay: Cell viability analysis (WST-1), 786-O; conditions: Table 4, repeated experiments, drug 10 μM; for viability at 10 µM: Homo sapiens, 786-0, 72 h, read-out: survival rate (viability) of cancer cells, 786-O
Description: (§1) Subculture the different types of cancer cells. The cancer cells includes lung cancer, gastric cancer, hepatic cancer, colon cancer, skin cancer, cervical cancer, prostate cancer, bladder cancer, breast cancer, leukemia, pancreatic cancer, ovarian cancer, tongue cancer, osteosarcoma, and renal cancer. The cell numbers were counted and reseed as 2×10^6 in cell culture plate/flask. Then, the culture medium for culturing the cell lines was added to a volume of 10 ml, and the cells were cultured for 2-3 days. Then, the cells were suspended for loading into 96-well plates. The cell number was 3000 cells and the volume of the culture medium was 100 ul each well.
(§2) Removing the original culture medium from 96-well plate. Then add 100 μl of commercially drug at a concentration of 10 μM per well. After 72 hours, add the diluted WST-1 reagent to the well with 100 μl/well, and the diluted WST-1 reagent was acquired from the dilution of 9:1 medium and WST-1 stock reagent. Finally, the total volume of each well are 200 μl/well. Culture the 96-well plate at 37° C. for 30 to 90 minutes. Detecting and calculating the survival rate of each cancer cells with an ELISA reader at OD450 nm. The lower viability of cancer cells represents better inhibition effect via the drugs. Otherwise, the higher viability of cancer cells represents worse inhibition effect via the drugs.
(§3) According to the above mentioned cardiovascular drugs for cancer growth inhibition in Table 3, the inventors took the repeat experiments for the cardiovascular drugs to check the growth inhibitory effects of cancer cells by the cardiovascular drugs. […] 4.

[2] = test system: A549 (Lung Adenocarcinoma); assay: Cell viability analysis (WST-1), A549; conditions: Table 4, repeated experiments, drug 10 μM; for survival rate (viability) of cancer cells, A549: 72 hours, WST-1; for viability at 10 µM: Homo sapiens, A549, 72 h, WST-1, read-out: survival rate (viability) of cancer cells, A549
[3] = test system: TSGH-8301 (Urinary Bladder Carcinoma); assay: Cell viability analysis (WST-1), TSGH-8301; conditions: Table 4, repeated experiments, drug 10 μM; for viability at 10 µM: 72 h, WST-1, read-out: survival rate (viability) of cancer cells, TSGH-8301
[4] = test system: A375 (Amelanotic Melanoma); assay: Cell viability analysis (WST-1), A375; conditions: Table 4, repeated experiments, drug 10 μM; for survival rate (viability) of cancer cells, A375: 72 hours, WST-1; for viability at 10 µM: Homo sapiens, A-375, 72 h, WST-1, read-out: survival rate (viability) of cancer cells, A375
[5] = test system: MCF7 (Mammary Gland, Adenocarcinoma); assay: Cell viability analysis (WST-1), MCF7; conditions: Table 4, repeated experiments, drug 10 μM; for viability at 10 µM: Homo sapiens, MCF7, 72 h, WST-1, read-out: survival rate (viability) of cancer cells, MCF-7
MDA-MB231 = assay: Cell viability analysis (WST-1), MDA-MB231; conditions: Table 4, repeated experiments, drug 10 μM; for viability at 10 µM: Homo sapiens, MDA-MB-231, 72 h, read-out: survival rate (viability) of cancer cells, MDA-MB231
TOV-21G = assay: Cell viability analysis (WST-1), TOV-21G; conditions: Table 4, repeated experiments, drug 10 μM; for survival rate (viability) of cancer cells, TOV-21G: 72 hours; for viability at 10 µM: Homo sapiens, TOV21G, 72 h, read-out: survival rate (viability) of cancer cells, TOV-21G
Description: as §1, §2, §3

[6] = test system: LoVo (Colorectal Adenocarcinoma); assay: Cell viability analysis (WST-1), LoVo; conditions: Table 4, repeated experiments, drug 10 μM; for viability at 10 µM: Homo sapiens, LoVo, 72 h, WST-1, read-out: survival rate (viability) of cancer cells, LoVo
[7] = test system: HepG2 (Hepatocellular Carcinoma); assay: Cell viability analysis (WST-1), HepG2; conditions: Table 4, repeated experiments, drug 10 μM; for survival rate (viability) of cancer cells, HepG2: 72 hours, WST-1; for viability at 10 µM: Homo sapiens, HepG2, 72 h, WST-1, read-out: survival rate (viability) of cancer cells, HepG2
[8] = test system: HeLa (Cervix Adenocarcinoma); assay: Cell viability analysis (WST-1), HeLa; conditions: Table 4, repeated experiments, drug 10 μM; for viability at 10 µM: Homo sapiens, HeLa, 72 h, WST-1, read-out: survival rate (viability) of cancer cells, HeLa
AsPC-1 = assay: Cell viability analysis (WST-1), AsPC-1; conditions: Table 4, repeated experiments, drug 10 μM; for viability at 10 µM: Homo sapiens, ASPC1, 72 h, read-out: survival rate (viability) of cancer cells, AsPC-1
Description: as §1, §2, §3

[9] = test system: H1650 (Lung Adenocarcinoma); assay: Cell viability analysis (WST-1), H1650; conditions: Table 4, repeated experiments, drug 10 μM; for survival rate (viability) of cancer cells, H1650: 72 hours, WST-1; for viability at 10 µM: Homo sapiens, NCI-H1650, 72 h, WST-1, read-out: survival rate (viability) of cancer cells, H1650
BxPC-3 = assay: Cell viability analysis (WST-1), BxPC-3; conditions: Table 4, repeated experiments, drug 10 μM; for viability at 10 µM: Homo sapiens, BXPC-3, 72 h, read-out: survival rate (viability) of cancer cells, BxPC-3
Description: as §1, §2, §3

BCC = assay: Cell viability analysis (WST-1), BCC; conditions: Table 4, repeated experiments, drug 10 μM; for survival rate (viability) of cancer cells, BCC: 72 hours; for viability at 10 µM: BCC, 72 h, read-out: survival rate (viability) of cancer cells, BCC
C-33A = assay: Cell viability analysis (WST-1), C-33A; conditions: Table 4, repeated experiments, drug 10 μM; for viability at 10 µM: Homo sapiens, C-33-A, 72 h, read-out: survival rate (viability) of cancer cells, C-33A
Description: as §1, §2, §3

[10] = test system: AGS (Gastric Adenocarcinoma); assay: Cell viability analysis (WST-1), AGS; conditions: Table 4, repeated experiments, drug 10 μM; for viability at 10 µM: 72 h, WST-1, read-out: survival rate (viability) of cancer cells, AGS
SAS = assay: Cell viability analysis (WST-1), SAS; conditions: Table 4, repeated experiments, drug 10 μM; for viability at 10 µM: 72 h, read-out: survival rate (viability) of cancer cells, SAS
Description: as §1, §2, §3

Hep3B = assay: Cell viability analysis (WST-1), Hep3B; conditions: Table 4, repeated experiments, drug 10 μM; for survival rate (viability) of cancer cells, Hep3B: 72 hours; for viability at 10 µM: Homo sapiens, Hep3B, 72 h, read-out: survival rate (viability) of cancer cells, Hep3B
Description: as §1, §2, §3

NIH-OVCAR-3 = assay: Cell viability analysis (WST-1), NIH-OVCAR-3; conditions: Table 4, repeated experiments, drug 10 μM; for viability at 10 µM: Homo sapiens, OVCAR-3, 72 h, read-out: survival rate (viability) of cancer cells, NIH-OVCAR-3
Description: as §1, §2, §3

U2OS = assay: Cell viability analysis (WST-1), U2OS; conditions: Table 4, repeated experiments, drug 10 μM; for viability at 10 µM: Homo sapiens, U2OS, 72 h, read-out: survival rate (viability) of cancer cells, U2OS
Description: as §1, §2, §3

[11] = test system: PC3 (Prostate Adenocarcinoma); assay: Cell viability analysis (WST-1), PC3; conditions: Table 4, repeated experiments, drug 10 μM; for viability at 10 µM: 72 h, WST-1, read-out: survival rate (viability) of cancer cells, PC-3
T24 = assay: Cell viability analysis (WST-1), T24; conditions: Table 4, repeated experiments, drug 10 μM; for viability at 10 µM: Homo sapiens, T-24, 72 h, read-out: survival rate (viability) of cancer cells, T24
Description: as §1, §2, §3

[12] = test system: HCT116 (Colorectal Carcinoma); assay: Cell viability analysis (WST-1), HCT116; conditions: Table 4, repeated experiments, drug 10 μM; for viability at 10 µM: Homo sapiens, HCT-116, 72 h, WST-1, read-out: survival rate (viability) of cancer cells, HCT116
cancer cell lines = assay: Growth inhibitory effects on the panel of cancer cell lines; conditions: drug 10 μM, 72 hours, WST-1

SMILES	viability at 10 µM [1]	viability at 10 µM (786-O)	viability at 10 µM [3]	viability at 10 µM (BxPC-3)	viability at 10 µM [10]	viability at 10 µM (SAS)	viability at 10 µM (U2OS)	viability at 10 µM (T24)	viability at 10 µM [5]	viability at 10 µM (MDA-MB231)	viability at 10 µM [6]	viability at 10 µM (AsPC-1)	viability at 10 µM (C-33A)	viability at 10 µM (NIH-OVCAR-3)	viability at 10 µM [11]	viability at 10 µM [12]	viability at 10 µM [2]	viability at 10 µM [4]	viability at 10 µM (TOV-21G)	viability at 10 µM [7]	other results
CCOC(=O)C1=C(COCCN)NC(C)=C(C(=O)OC)C1c1ccccc1Cl (stereo not drawn) [Amlodipine (Norvase), Amlodipine]	88.2%	81.4%	36.2%	86%	16.5%	99.2%	78.9%	96.6%													survival rate (viability) of cancer cells, A549 [2]: 89.22; survival rate (viability) of cancer cells, A375 [4]: 81.58; survival rate (viability) of cancer cells, MCF-7 ([5]; 72 hours, WST-1): 63.42; survival rate (viability) of cancer cells, MDA-MB231 (MDA-MB231; 72 hours): 87.55; survival rate (viability) of cancer cells, TOV-21G (TOV-21G): 61.32; survival rate (viability) of cancer cells, LoVo ([6]; 72 hours, WST-1): 90.33; survival rate (viability) of cancer cells, HepG2 [7]: 71.76; survival rate (viability) of cancer cells, HeLa ([8]; 72 hours, WST-1): 86.96; survival rate (viability) of cancer cells, AsPC-1 (AsPC-1; 72 hours): 89.04; survival rate (viability) of cancer cells, H1650 [9]: 72.01; survival rate (viability) of cancer cells, BCC (BCC): 74.9299; survival rate (viability) of cancer cells, C-33A (C-33A; 72 hours): 38.18; survival rate (viability) of cancer cells, Hep3B (Hep3B): 99.22; survival rate (viability) of cancer cells, NIH-OVCAR-3 (NIH-OVCAR-3; 72 hours): 90.31; survival rate (viability) of cancer cells, PC-3 ([11]; 72 hours, WST-1): 85.88; survival rate (viability) of cancer cells, HCT116 ([12]; 72 hours, WST-1): 91.96
CCOC(=O)C1=C(COCCN)NC(C)=C(C(=O)OC)C1c1ccccc1Cl (stereo not drawn) [Amlodipine besylate (Norvase), Amlodipine besylate]									80.5%	82.7%	85.6%	87.8%	33.7%	91.6%	73.6%	78.3%					survival rate (viability) of cancer cells, MKN-45 ([1]; 72 hours, WST-1): 86.43; survival rate (viability) of cancer cells, 786-O (786-O; 72 hours): 73.16; survival rate (viability) of cancer cells, A549 [2]: 110.3104; survival rate (viability) of cancer cells, TSGH-8301 ([3]; 72 hours, WST-1): 36.2492; survival rate (viability) of cancer cells, A375 [4]: 136.6675; survival rate (viability) of cancer cells, TOV-21G (TOV-21G): 93.55; survival rate (viability) of cancer cells, HepG2 [7]: 95.01; survival rate (viability) of cancer cells, H1650 [9]: 110.2477; survival rate (viability) of cancer cells, BxPC-3 (BxPC-3; 72 hours): 99.11; inhibition effect on different cancer cell lines (in words) (cancer cell lines): significant inhibition effect; survival rate (viability) of cancer cells, BCC (BCC): 102.9778; survival rate (viability) of cancer cells, AGS ([10]; 72 hours, WST-1): 12.18; survival rate (viability) of cancer cells, SAS (SAS; 72 hours): 94.7983; survival rate (viability) of cancer cells, Hep3B (Hep3B): 123.4192; survival rate (viability) of cancer cells, U2OS (U2OS; 72 hours): 71.06; survival rate (viability) of cancer cells, T24 (T24; 72 hours): 93.08
CC(C)n1c(/C=C/C(O)CC(O)CC(=O)O)c(-c2ccc(F)cc2)c2ccccc21 (stereo not drawn) [Fluvastatin sodium (Lescol), Fluvastatin sodium]	65.3%	23.6%	78.2%	79.1%	52%	81.5%	91.2%	71.8%	82.5%	43%	100%	83.6%	89.5%	84.7%	32.1%	55%	98.8%	21.8%	50.5%	104%	viability at 10 µM [8]: 54.3%; viability at 10 µM [9]: 73.1%; viability at 10 µM (BCC): 27%; viability at 10 µM (Hep3B): 109%
COC(=O)C1=C(C)NC(C)=C(C(=O)OCC(C)C)C1c1ccccc1[N+](=O)[O-] (stereo not drawn) [Nisoldipine (Sular), Nisoldipine]	98%	49.5%	77.9%	75.6%	64.7%	48.8%	69.1%	67.8%	86.6%	74.1%	76.9%	78.8%	66%	68.1%	98.9%	77.4%	48.9%	51.5%	44.4%	95.5%	viability at 10 µM [8]: 76.9%; viability at 10 µM [9]: 70%; viability at 10 µM (BCC): 58.8%; viability at 10 µM (Hep3B): 130%
C[C@@H]1O[C@@H](O[C@H]2C[C@@H](O)[C@]3(CO)[C@H]4[C@H](O)C[C@]5(C)[C@@H](C6=CC(=O)OC6)CC[C@]5(O)[C@@H]4CC[C@]3(O)C2)[C@H](O)[C@H](O)[C@H]1O [Ouabain]	53%	14.5%	43.6%	27%	16.6%	20.2%	22.8%	17.6%	29.1%	44.5%	39.7%	20.1%	35.5%	42.3%	25.8%	15.9%	15.1%	18.4%	15.9%	38.1%	viability at 10 µM [8]: 23.1%; viability at 10 µM [9]: 38.7%; viability at 10 µM (BCC): 25.6%; viability at 10 µM (Hep3B): 33.4%
